One molecule from PubChem BioAssay AID248 (DTP/NCI, 2004) can be followed below.

In this test the test system is L1210 leukemia ip in BDF1 mice, survival T/C. Briefly: NCI In Vivo Anticancer Drug Screen. Data for tumor model L1210 Leukemia (intraperitoneal) in B6D2F1 (BDF1) mice. To be noted: endpoint: mean survival time, schedule: Q01DX Z (ip), vehicle: methylcellulose (MC), higher = longer survival. The method, boiled down:
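Antitumor effect is assessed in tumor-bearing animals. Survival in the compound arm is compared with a vehicle-dosed control arm and expressed as their quotient.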

SMILES strings stand for the structures. Toxic doses and inconclusive results are not listed.

Turning to `C[N+](C)(C)c1ncnc2c1ncn2C1CCCO1` (configuration not stated), the T/C runs as follows: (dose: 50.0 mg/kg/injection) 92 % of control; (dose: 100.0 mg/kg/injection) 94 % of control.
